From patent US7067518B2, “Pyridinyl-methyl-ethyl cyclohexanecarboxamides as serotonergic agents” (Wyeth, priority 2002, dated 2006)
Counter-ions that a name gives are not always drawn.

How the values were obtained:
human 5-HT1A receptor [1] = biological target: T1, human 5-HT1A receptor (Homo sapiens, UniProt P08908); test: 5-HT1A affinity: displacement of [3H] 8-OHDPAT; format: binding; conditions: CHO cells stably transfected with the human 5-HT1A receptor
T1 construct: expressed in transfected cells; host or cells: CHO cells (stably transfected)
T1 sequence (P08908 1-422): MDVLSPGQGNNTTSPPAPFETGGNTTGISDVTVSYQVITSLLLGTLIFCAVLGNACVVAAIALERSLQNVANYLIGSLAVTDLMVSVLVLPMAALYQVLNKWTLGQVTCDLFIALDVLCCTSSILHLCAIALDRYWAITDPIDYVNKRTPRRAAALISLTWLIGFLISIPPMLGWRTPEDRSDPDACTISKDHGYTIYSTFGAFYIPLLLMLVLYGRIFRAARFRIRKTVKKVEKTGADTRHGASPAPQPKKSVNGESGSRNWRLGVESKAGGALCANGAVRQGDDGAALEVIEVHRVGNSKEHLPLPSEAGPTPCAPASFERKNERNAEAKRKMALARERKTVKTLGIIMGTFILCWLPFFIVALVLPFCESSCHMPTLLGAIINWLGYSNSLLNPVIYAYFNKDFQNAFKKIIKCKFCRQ
Text: Affinity for the serotonin 5-HT1A receptor was established by assaying the test compound's ability to displace [^3H] 8-OHDPAT from its binding site on the receptor complex in CHO cells stably transfected with the human 5-HT1A receptor following the procedure described by J. Dunlop, Y. Zhang, D. Smith and L. Schechter (Eur. J. Pharmacol., submitted; variation of a procedure described by J. Zgombick et al., Naunyn-Schmiedeberg's Arch. Pharmacol., 354, 226–236 (1996)).

human 5-HT1A receptor [2] = biological target: T1, human 5-HT1A receptor; test: Agonist activity: reversal of forskolin stimulation of cAMP; format: cell-based; conditions: reversal of forskolin-stimulated cAMP; CHO cells stably transfected with the human 5-HT1A receptor; RIA
Method: EC50 values are determined for the active test compounds. Stably transfected CHO cells were grown in DMEM containing 10% heat inactivated FBS and non-essential amino acids. The cells are plated at a density of […] per well in a 24 well plate and incubated for 2 days in a CO2 incubator. On the second day, the media is replaced with 0.5 mL treatment buffer (DMEM+25 mM HEPES, 5 mM theophylline, 10 mM pargyline) and incubated for 10 minutes at 37° C. Wells are treated with forskolin ([…]) followed immediately by the test compound ([…] for initial screen) and incubated for an additional 10 minutes at 37° C. The reaction is terminated by removal of the media and addition of 0.5 mL ice cold assay buffer (supplied in the RIA kit). Plates are stored at −20° C. prior to assessment of cAMP formation by RIA.

human 5-HT1A receptor [3] = biological target: T1, human 5-HT1A receptor; test: Antagonist activity: forskolin-stimulated cAMP turnover; format: cell-based; conditions: CHO cells stably transfected with the human 5-HT1A receptor, compounds with no agonist activity (Emax=0%)
Text: Compounds shown to have no agonist activity (Emax=0%) are further analyzed to determine antagonist activity, as measured by the test compound's ability to inhibit forskolin-stimulated cAMP turnover in CHO cells stably transfected with the human 5-HT1A receptor using a procedure described by J. Dunlop, Y. Zhang, D. Smith and L. Schechter [Eur. J. Pharmacol., submitted; variation of a procedure described by J. Zgombick et al., Naunyn-Schmiedeberg's Arch. Pharmacol., 354, 226–236 (1996)].

Row | SMILES | melting point [°C] | IC50 (human 5-HT1A receptor [1]) [nM] | EC50 (human 5-HT1A receptor [2]) [nM] | IC50 (human 5-HT1A receptor [3]) [nM]
1 | COc1ccccc1N1CCN(C[C@@H](Cc2cccnc2)NC(=O)C2(C)CCCCC2)CC1 (as salt: fumarate) [Example 5, (R)-1-Methyl-cyclohexanecarboxylic acid {2-[4-(2-methoxy-phenyl)-piperazin-1-yl]-1-pyridin-3-ylmethyl-ethyl}-amide] | 150 to 152 | – | – | –
2 | COc1ccccc1N1CCN(C[C@@H](Cc2ccncc2)NC(=O)C2(C)CCCCC2)CC1 (as salt: fumarate) [Example 10, (R)-1-Methyl-cyclohexanecarboxylic acid {2-[4-(2-methoxy-phenyl)-piperazin-1-yl]-1-pyridin-4-ylmethyl-ethyl}-amide] | 145 | – | – | –
3 | COc1ccccc1N1CCN(C[C@@H](Cc2ccccn2)NC(=O)C2CCCCC2)CC1 (as salt: fumarate) [Example 14, (R)-Cyclohexanecarboxylic acid {2-[4-(2-methoxy-phenyl)-piperazin-1-yl]-1-pyridin-2-ylmethyl-ethyl}-amide] | 136 to 141 | – | – | –
4 | COc1ccccc1N1CCN(C[C@@H](Cc2ccccn2)NC(=O)C2(C)CCCCC2)CC1 (as salt: fumarate) [Example 15, (R)-1-Methyl-cyclohexanecarboxylic acid {2-[4-(2-methoxy-phenyl)-piperazin-1-yl]-1-pyridin-2-ylmethyl-ethyl}-amide] | 135 to 139 | – | – | –
5 | COc1ccccc1N1CCN(C[C@@H](Cc2ccccn2)N(C)C(=O)C2(C)CCCCC2)CC1 (as salt: fumarate) [Example 18, 1-Methyl-cyclohexanecarboxylic acid {(1R)-2-[4-(2-methoxy-phenyl)-piperazin-1-yl]-1-pyridin-2-ylmethyl-ethyl}-methyl-amide] | 145 to 146 | – | – | –
6 | CC1(C(=O)N[C@H](Cc2cccnc2)CN2CCN(c3cccc4c3OCCO4)CC2)CCCCC1 (as salt: hydrochloride) [Example 22, 1-Methyl-cyclohexanecarboxylic acid {(1R)-2-[4-(2,3-dihydro-benzo[1,4]dioxin-5-yl)-piperazin-1-yl]-1-pyridin-3-ylmethyl-ethyl}-amide] | 188 to 190 | – | – | –
7 | COc1ccccc1N1CCN(C[C@@H](Cc2cccnc2)NC(=O)C2CCCCC2)CC1 (as salt: maleate) [Example 4, (R)-Cyclohexanecarboxylic acid {2-[4-(2-methoxy-phenyl)-piperazin-1-yl]-1-pyridin-3-ylmethyl-ethyl}-amide] | 112 to 115 | – | – | –
8 | COc1ccccc1N1CCN(C[C@@H](Cc2ccncc2)NC(=O)C2CCCCC2)CC1 (as salt: maleate) [Example 9, (R)-Cyclohexanecarboxylic acid {2-[4-(2-methoxy-phenyl)-piperazin-1-yl]-1-pyridin-4-ylmethyl-ethyl}-amide] | 145 to 147 | – | – | –
9 | COc1ccccc1N1CCN(C[C@@H](Cc2cccnc2)NC(=O)C2CCCCC2)CC1 [Example 4, (R)-Cyclohexanecarboxylic acid {2-[4-(2-methoxy-phenyl)-piperazin-1-yl]-1-pyridin-3-ylmethyl-ethyl}-amide] | – | 0.48 | 20.5 | –
10 | COc1ccccc1N1CCN(C[C@@H](Cc2cccnc2)NC(=O)C2(C)CCCCC2)CC1 [Example 5, (R)-1-Methyl-cyclohexanecarboxylic acid {2-[4-(2-methoxy-phenyl)-piperazin-1-yl]-1-pyridin-3-ylmethyl-ethyl}-amide] | – | 0.88 | – | 13.2
11 | COc1ccccc1N1CCN(C[C@@H](Cc2ccncc2)NC(=O)C2CCCCC2)CC1 [Example 9, (R)-Cyclohexanecarboxylic acid {2-[4-(2-methoxy-phenyl)-piperazin-1-yl]-1-pyridin-4-ylmethyl-ethyl}-amide] | – | 0.56 | 141 | –
12 | COc1ccccc1N1CCN(C[C@@H](Cc2ccncc2)NC(=O)C2(C)CCCCC2)CC1 [Example 10, (R)-1-Methyl-cyclohexanecarboxylic acid {2-[4-(2-methoxy-phenyl)-piperazin-1-yl]-1-pyridin-4-ylmethyl-ethyl}-amide] | – | 0.72 | – | 11.3
13 | COc1ccccc1N1CCN(C[C@@H](Cc2ccccn2)NC(=O)C2CCCCC2)CC1 [Example 14, (R)-Cyclohexanecarboxylic acid {2-[4-(2-methoxy-phenyl)-piperazin-1-yl]-1-pyridin-2-ylmethyl-ethyl}-amide] | – | 1.26 | 53 | –
14 | COc1ccccc1N1CCN(C[C@@H](Cc2ccccn2)NC(=O)C2(C)CCCCC2)CC1 [Example 15, (R)-1-Methyl-cyclohexanecarboxylic acid {2-[4-(2-methoxy-phenyl)-piperazin-1-yl]-1-pyridin-2-ylmethyl-ethyl}-amide] | – | 0.74 | – | 4.5
15 | COc1ccccc1N1CCN(C[C@@H](Cc2ccccn2)N(C)C(=O)C2(C)CCCCC2)CC1 [Example 18, 1-Methyl-cyclohexanecarboxylic acid {(1R)-2-[4-(2-methoxy-phenyl)-piperazin-1-yl]-1-pyridin-2-ylmethyl-ethyl}-methyl-amide] | – | 3 | – | 132

Further lines, results first:

Row | melting point [°C] | IC50 (human 5-HT1A receptor [1]) [nM] | EC50 (human 5-HT1A receptor [2]) [nM] | IC50 (human 5-HT1A receptor [3]) [nM] | SMILES
16 | 188 to 190 | – | – | – | CC1(C(=O)N[C@H](Cc2ccncc2)CN2CCN(c3cccc4c3OCCO4)CC2)CCCCC1 (as salt: hydrochloride) [Example 23, 1-Methyl-cyclohexanecarboxylic acid {(1R)-2-[4-(2,3-dihydro-benzo[1,4]dioxin-5-yl)-piperazin-1-yl]-1-pyridin-4-ylmethyl-ethyl}-amide]
17 | 167 to 170 | – | – | – | CN(C(=O)C1CCCCC1)[C@H](Cc1cccnc1)CN1CCN(c2cccc3c2OCCO3)CC1 (as salt: hydrochloride) [Example 24, Cyclohexanecarboxylic acid {(1R)-2-[4-(2,3-dihydro-benzo[1,4]dioxin-5-yl)-piperazin-1-yl]-1-pyridin-3-ylmethyl-ethyl}-methyl-amide]
18 | 167 to 170 | – | – | – | CN(C(=O)C1CCCCC1)[C@H](Cc1ccncc1)CN1CCN(c2cccc3c2OCCO3)CC1 (as salt: hydrochloride) [Example 25, Cyclohexanecarboxylic acid {(1R)-2-[4-(2,3-dihydro-benzo[1,4]dioxin-5-yl)-piperazin-1-yl]-1-pyridin-4-ylmethyl-ethyl}-methyl-amide]
19 | – | 2.58 | 10.2 | – | CC1(C(=O)N[C@H](Cc2cccnc2)CN2CCN(c3cccc4c3OCCO4)CC2)CCCCC1 [Example 22, 1-Methyl-cyclohexanecarboxylic acid {(1R)-2-[4-(2,3-dihydro-benzo[1,4]dioxin-5-yl)-piperazin-1-yl]-1-pyridin-3-ylmethyl-ethyl}-amide]
20 | – | 1.13 | 108 | – | CC1(C(=O)N[C@H](Cc2ccncc2)CN2CCN(c3cccc4c3OCCO4)CC2)CCCCC1 [Example 23, 1-Methyl-cyclohexanecarboxylic acid {(1R)-2-[4-(2,3-dihydro-benzo[1,4]dioxin-5-yl)-piperazin-1-yl]-1-pyridin-4-ylmethyl-ethyl}-amide]
21 | – | 2.48 | – | 77 | CN(C(=O)C1CCCCC1)[C@H](Cc1cccnc1)CN1CCN(c2cccc3c2OCCO3)CC1 [Example 24, Cyclohexanecarboxylic acid {(1R)-2-[4-(2,3-dihydro-benzo[1,4]dioxin-5-yl)-piperazin-1-yl]-1-pyridin-3-ylmethyl-ethyl}-methyl-amide]
22 | – | 3.81 | – | 115 | CN(C(=O)C1CCCCC1)[C@H](Cc1ccncc1)CN1CCN(c2cccc3c2OCCO3)CC1 [Example 25, Cyclohexanecarboxylic acid {(1R)-2-[4-(2,3-dihydro-benzo[1,4]dioxin-5-yl)-piperazin-1-yl]-1-pyridin-4-ylmethyl-ethyl}-methyl-amide]
